According to patent US20240376091A1, “THIADIAZOLEAMIDE DERIVATIVES AND THEIR APPLICATIONS” (ZHEJIANG UNIVERSITY, priority 2021, published 2024):
pIC50: −log10 of the molar value.

Target: T1, AR (Homo sapiens, UniProt P10275, T878A)
T1 construct: into the androgen-dependent PCa cells (LNCaP); endogenous in cells; host or cells: LNCaP-ARR2PB-eGFP
T1 sequence (P10275 1-920 T878A): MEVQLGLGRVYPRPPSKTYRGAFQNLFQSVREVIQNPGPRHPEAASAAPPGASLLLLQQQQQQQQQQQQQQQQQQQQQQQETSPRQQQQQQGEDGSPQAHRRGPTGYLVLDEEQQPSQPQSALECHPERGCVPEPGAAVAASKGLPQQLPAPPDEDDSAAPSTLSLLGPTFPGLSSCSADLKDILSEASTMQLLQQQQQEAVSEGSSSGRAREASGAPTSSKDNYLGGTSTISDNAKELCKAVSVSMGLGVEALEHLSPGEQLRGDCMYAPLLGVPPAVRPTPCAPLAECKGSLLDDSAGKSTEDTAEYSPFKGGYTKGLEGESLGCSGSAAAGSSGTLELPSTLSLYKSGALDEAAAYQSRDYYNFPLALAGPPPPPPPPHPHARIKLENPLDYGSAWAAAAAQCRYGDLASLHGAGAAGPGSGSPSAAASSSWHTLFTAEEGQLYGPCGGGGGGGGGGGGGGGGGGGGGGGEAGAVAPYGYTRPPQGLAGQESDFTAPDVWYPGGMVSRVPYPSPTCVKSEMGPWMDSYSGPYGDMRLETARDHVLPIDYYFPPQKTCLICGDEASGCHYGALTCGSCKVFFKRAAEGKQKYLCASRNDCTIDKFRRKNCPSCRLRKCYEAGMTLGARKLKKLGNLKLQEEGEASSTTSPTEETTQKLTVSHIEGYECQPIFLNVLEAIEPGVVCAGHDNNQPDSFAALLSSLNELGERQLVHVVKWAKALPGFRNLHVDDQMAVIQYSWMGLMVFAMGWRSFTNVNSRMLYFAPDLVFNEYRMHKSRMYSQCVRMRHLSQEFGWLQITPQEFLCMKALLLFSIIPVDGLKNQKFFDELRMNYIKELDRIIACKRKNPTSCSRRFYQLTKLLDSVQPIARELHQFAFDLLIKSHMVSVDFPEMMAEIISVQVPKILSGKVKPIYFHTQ
Test: AR transcriptional activity, LNCaP-ARR2PB-eGFP reporter cells
Format: cell-based
Details: read-out: IC50 AR transcriptional activities
From the text: Detection principles: We conducted a stable transfection of promoter ARR2PB known for its strong AR responsiveness, into the androgen-dependent PCa cells (LNCaP). The expression of enhanced green fluorescent protein (eGFP) is depending on the degree of activation of AR. Therefore, LNCaP-ARR2PB-eGFP cell line could quantitatively determine the AR antagonistic activities of the compounds by evaluating the expression of eGFP.

Compound	pIC50
CC(=O)Cc1nsc(NC(=O)c2cc(-c3cccc(OC(F)F)c3)oc2C(F)(F)F)n1 [Compound E-5, 5-(3-(Difluoromethoxy)phenyl)-N-(3-(2-oxopropyl)-1,2,4-thiadiazol-5-yl)-2-(trifluoro-methyl)furan-3-carboxamide]	5.83
CC(Cc1nsc(NC(=O)c2cc(-c3cccc(C(F)(F)F)c3)oc2C(F)(F)F)n1)N1CCCC1 (stereo not shown) [Compound E-6, N-(3-(2-(pyrrolidin-1-yl)propyl)-1,2,4-thiadiazol-5-yl)-2-(trifluoromethyl)-5-(3-(trifluoromethyl)phenyl) furan-3-carboxamide]	5.47
CC(O)Cc1nsc(NC(=O)c2cc(-c3cccc(C(F)(F)F)c3)oc2C(F)(F)F)n1 (stereo not shown) [Compound E-12, N-(3-(2-hydroxypropyl)-1,2,4-thiadiazol-5-yl)-2-(trifluoromethyl)-5-(3-(trifluoromethyl)phenyl)furan-3-carboxamide]	5.80
CC(O)(Cc1nsc(NC(=O)c2cc(-c3cccc(C(F)(F)F)c3)oc2C(F)(F)F)n1)C(F)(F)F (stereo not shown) [Compound E-17, N-(3-(3,3,3-trifluoro-2-hydroxy-2-methylpropyl)-1,2,4-thiadiazol-5-yl)-2-(trifluoromethyl)-5-(3-(trifluoromethyl)phenyl)furan-3-carboxamide]	6.10
CC(Cc1nsc(NC(=O)c2cc(-c3cccc(C(F)(F)F)c3)oc2C(F)(F)F)n1)=C(F)F [Compound E-22, N-(3-(3,3-difluoro-2-methylallyl)-1,2,4-thiadiazol-5-yl)-2-(trifluoromethyl)-5-(3-(trifluoromethyl)phenyl) furan-3-carboxamide]	5.84
CC(F)(F)Cc1nsc(NC(=O)c2cc(-c3cccc(C(F)(F)F)c3)oc2C(F)(F)F)n1 [Compound E-27, N-(3-(2,2-difluoropropyl)-1,2,4-thiadiazol-5-yl)-2-(trifluoromethyl)-5-(3-(trifluoromethyl)phenyl) fura n-3-carboxamide]	6.02
O=C(Nc1nc(CCl)ns1)c1cc(-c2cccc(C(F)(F)F)c2)oc1C(F)(F)F [Compound E-32, N-(3-(chloromethyl)-1,2,4-thiadiazol-5-yl)-2-(trifluoromethyl)-5-(3-(trifluoromethyl)phenyl)furan-3-carboxamide]	5.88
CN1CCN(Cc2nsc(NC(=O)c3cc(-c4cccc(C#N)c4)oc3C(F)(F)F)n2)CC1 [Compound E-38, 5-(3-Cyanophenyl)-N-(3-((4-methylpiperazin-1-yl)methyl)-1,2,4-thiadiazol-5-yl)-2-(trifluoromethyl)furan-3-carboxamide]	5.84
O=C(Nc1nc(CN2CCCC2)ns1)c1cc(-c2cccc(OC(F)(F)F)c2)oc1C(F)(F)F [Compound E-40, N-(3-(pyrrolidin-1-ylmethyl)-1,2,4-thiadiazol-5-yl)-5-(3-(trifluoromethoxy)phenyl)-2-(trifluoromethyl)furan-3-carboxamide]	5.53
CC(=O)Cc1nsc(NC(=O)c2cc(-c3cccc(C(F)(F)F)c3)c(C)o2)n1 [Compound F-1, 5-Methyl-N-(3-(2-oxopropyl)-1,2,4-thiadiazol-5-yl)-4-(3-(trifluoromethyl)phenyl)furan-2-carboxamide]	4.55
COc1cccc(-c2cc(C(=O)Nc3nc(CC(C)=O)ns3)oc2C)c1 [Compound F-3, 4-(3-Methoxyphenyl)-5-methyl-N-(3-(2-oxopropyl)-1,2,4-thiadiazol-5-yl)furan-2-carboxamide]	4.65
CC(=O)Cc1nsc(NC(=O)c2cc(-c3cccc(OC(F)(F)F)c3)c(C)o2)n1 [Compound F-4, 5-Methyl-N-(3-(2-oxopropyl)-1,2,4-thiadiazol-5-yl)-4-(3-(trifluoromethoxy)phenyl)furan-2-carboxamide]	4.45
Cc1oc(C(=O)Nc2nc(CC(C)N3CCN(C)CC3)ns2)cc1-c1cccc(OC(F)F)c1 (stereo not shown) [Compound F-10, 4-(3-(Difluoromethoxy)phenyl)-5-methyl-N-(3-(2-(4-methylpiperazin-1-yl)propyl)-1,2,4-thiadiazol-5-yl)furan-2-carboxamide]	4.57

Further compounds by rising pIC50, results first:

pIC50	Compound
4.46	CC(=O)Cc1nsc(NC(=O)c2cc(-c3cccc(C#N)c3)c(C)o2)n1 [Compound F-2, 4-(3-Cyanophenyl)-5-methyl-N-(3-(2-oxopropyl)-1,2,4-thiadiazol-5-yl)furan-2-carboxamide]
4.63	Cc1oc(C(=O)Nc2nc(CC(C)N3CCOCC3)ns2)cc1-c1cccc(OC(F)(F)F)c1 (stereo not shown) [Compound F-9, 5-Methyl-N-(3-(2-morpholinopropyl)-1,2,4-thiadiazol-5-yl)-4-(3-(trifluoromethoxy)phenyl)furan-2-carboxamide]
4.75	Cc1oc(C(=O)Nc2nc(CC(C)N3CCCC3)ns2)cc1-c1cccc(C(F)(F)F)c1 (stereo not shown) [Compound F-6]
4.75	COc1cccc(-c2cc(C(=O)Nc3nc(CC(C)N4CCOCC4)ns3)oc2C)c1 (stereo not shown) [Compound F-8, 4-(3-Methoxyphenyl)-5-methyl-N-(3-(2-morpholinopropyl)-1,2,4-thiadiazol-5-yl)furan-2-carboxamide]
4.85	Cc1oc(C(=O)Nc2nc(CC(C)N3CCCCC3)ns2)cc1-c1cccc(C#N)c1 (stereo not shown) [Compound F-7, 4-(3-Cyanophenyl)-5-methyl-N-(3-(2-(piperidin-1-yl)propyl)-1,2,4-thiadiazol-5-yl)furan-2-carboxamide]
4.90	CC(=O)Cc1nsc(NC(=O)c2cc(-c3cccc(OC(F)F)c3)c(C)o2)n1 [Compound F-5, 4-(3-(Difluoromethoxy)phenyl)-5-methyl-N-(3-(2-oxopropyl)-1,2,4-thiadiazol-5-yl)furan-2-carboxamide]
5.12	CC(Cc1nsc(NC(=O)c2cc(-c3cccc(C#N)c3)oc2C(F)(F)F)n1)N1CCOCC1 (stereo not shown) [Compound E-8, 5-(3-Cyanophenyl)-N-(3-(2-morpholinopropyl)-1,2,4-thiadiazol-5-yl)-2-(trifluoromethyl)furan-3-carboxamide]
5.28	COc1cccc(-c2cc(C(=O)Nc3nc(CC(C)N4CCCCC4)ns3)c(C(F)(F)F)o2)c1 (stereo not shown) [Compound E-9, 5-(3-Methoxyphenyl)-N-(3-(2-(piperidin-1-yl)propyl)-1,2,4-thiadiazol-5-yl)-2-(trifluoro-methyl)furan-3-carboxamide]
5.66	COc1cccc(-c2cc(C(=O)Nc3nc(CN4CCOCC4)ns3)c(C(F)(F)F)o2)c1 [Compound E-39, 5-(3-Methoxyphenyl)-N-(3-(morpholinomethyl)-1,2,4-thiadiazol-5-yl)-2-(trifluoromethyl)furan-3-carboxamide]
6.00	CC(Cc1nsc(NC(=O)c2cc(-c3cccc(OC(F)(F)F)c3)oc2C(F)(F)F)n1)N1CCOCC1 (stereo not shown) [Compound E-10, N-(3-(2-morpholinopropyl)-1,2,4-thiadiazol-5-yl)-5-(3-(trifluoromethoxy)phenyl)-2-(trifluoromethyl)furan-3-carboxamide]
6.01	CC(Cc1nsc(NC(=O)c2cc(-c3cccc(OC(F)F)c3)oc2C(F)(F)F)n1)N1CCN(C)CC1 (stereo not shown) [Compound E-11, 5-(3-(Difluoromethoxy)phenyl)-N-(3-(2-(4-methylpiperazin-1-yl)propyl)-1,2,4-thiadiazol-5-yl)-2-(trifluoromethyl)furan-3-carboxamide]
6.05	O=C(Nc1nc(CN2CCCCC2)ns1)c1cc(-c2cccc(OC(F)F)c2)oc1C(F)(F)F [Compound E-41, 5-(3-(Difluoromethoxy)phenyl)-N-(3-(piperidin-1-ylmethyl)-1,2,4-thiadiazol-5-yl)-2-(trifluoromethyl)furan-3-carboxamide]
